# From US7943340B2, “Fungal dipeptidyl peptidase IV (DPPIV) enzyme for reagent use” (priority 2003, dated 2011)
# Read-outs that look alike come from different tables or passages of the source.
# T1: pkLAP (microsomal LAP from porcine kidney) (Sus scrofa, UniProt P15145)
# T1 construct: purchased Sigma; host or cells: porcine kidney
# T1 sequence (P15145 1-963): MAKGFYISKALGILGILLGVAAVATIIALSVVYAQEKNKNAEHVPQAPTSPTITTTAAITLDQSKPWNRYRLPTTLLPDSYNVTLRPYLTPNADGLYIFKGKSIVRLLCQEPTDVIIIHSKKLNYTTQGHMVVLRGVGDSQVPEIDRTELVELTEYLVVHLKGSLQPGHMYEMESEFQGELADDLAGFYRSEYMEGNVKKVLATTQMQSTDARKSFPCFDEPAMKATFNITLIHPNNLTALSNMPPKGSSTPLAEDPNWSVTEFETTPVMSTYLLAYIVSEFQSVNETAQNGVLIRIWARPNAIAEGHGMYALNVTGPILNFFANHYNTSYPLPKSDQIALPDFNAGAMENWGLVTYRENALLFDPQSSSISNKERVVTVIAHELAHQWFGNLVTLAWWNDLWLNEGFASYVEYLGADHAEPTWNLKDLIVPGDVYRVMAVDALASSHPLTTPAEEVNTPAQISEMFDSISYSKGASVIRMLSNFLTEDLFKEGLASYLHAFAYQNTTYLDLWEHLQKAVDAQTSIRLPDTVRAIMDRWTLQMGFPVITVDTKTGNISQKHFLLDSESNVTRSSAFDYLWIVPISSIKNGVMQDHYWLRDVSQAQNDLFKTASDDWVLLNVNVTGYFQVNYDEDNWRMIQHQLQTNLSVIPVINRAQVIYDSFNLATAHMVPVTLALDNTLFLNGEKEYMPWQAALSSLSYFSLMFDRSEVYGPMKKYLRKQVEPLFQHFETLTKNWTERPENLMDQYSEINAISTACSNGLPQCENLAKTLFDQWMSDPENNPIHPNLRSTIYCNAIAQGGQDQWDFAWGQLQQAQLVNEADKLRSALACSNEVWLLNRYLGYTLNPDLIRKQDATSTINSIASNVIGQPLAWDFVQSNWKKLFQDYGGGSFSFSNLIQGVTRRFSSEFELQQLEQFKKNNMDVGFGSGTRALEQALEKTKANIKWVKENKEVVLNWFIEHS
# B1: Cytosolic porcine kidney aminopeptidase: cytosolic leucine aminopeptidase from porcine kidney, Sigma (protein, UniProt P28839 1-519, looked up)
# Cytosol aminopeptidase: MFLLPLPAAARVAVRQLSVRRFWGPGPDAANMTKGLVLGIYSKEKEDDAPQFTSAGENFDKLVSGKLREILNISGPPLKAGKTRTFYGLHEDFSSVVVVGLGKKGAGVDDQENWHEGKENIRAAVAAGCRQIQDLEIPSVEVDPCGDAQAAAEGAVLGLYEYDELKQKKKVVVSAKLHGSGDQEAWQRGVLFASGQNLARHLMETPANEMTPTRFAEVIEKNLKSASSKTDVHIRPKSWIEEQEMGSFLSVAKGSEEPPVFLEIHYKGSPDASDPPLVFVGKGITFDSGGISIKASANMDLMRADMGGAATICSTIVSAAKLDLPINLVGLAPLCENMPSGKANKPGDVVRAKNGKTIQVDNTDAEGRLILADALCYAHTFNPKVIINAATLTGAMDIALGSGATGVFTNSSWLWNKLFEASIETGDRVWRMPLFEHYTKQIVDCQLADVNNIGKYRSAGACTAAAFLKEFVTHPKWAHLDIAGVMTNKDEVPYLRKGMAGRPTRTLIEFLLRFSQDSA
# Experiments:
# [1] = target: T1, pkLAP (microsomal LAP from porcine kidney); assay: Effect of chemical reagents (inhibitors, metallic cations) on LAP activity with Leu-AMC; format: biochemical; settings: Leu-MCA substrate; for pkLAP hydrolytic activity, percentage of control without inhibitor: inhibitor 20 μM
# Experimental: (§1) Inhibitors and metallic cations were pre-incubated with the enzymes for 15 min at 37° C. Then, Leu-AMC at a 5 mM final concentration was added. After further incubation for 60 min, enzyme activity was measured as described above. The inhibitors and their concentrations tested purified LAPs were: 500 μM amastatin (Bachem), 40 μM benzamidine (Sigma), 500 μM bestatin (Bachem), 5 mM/l mM EDTA (Sigma). 100 μM E-64 (L-trans-epoxysuccinyl-leu-4-guanidinobutylamide) (Bachem), 100 μM leupeptin (Sigma), 5 mM/1 mM ortho-phenanthroline (Sigma), 500 μM p-chloromercuribenzoic acid (Sigma), 100 μM pepstatin A (Sigma), 40 μM PMSF (Sigma), 20 μM TLCK (Roche Diagnostics), and 20 μM TPCK (Roche Diagnostics).
# fuLAP2 = format: biochemical, Aspergillus fumigatus; settings: for fuLAP2 hydrolytic activity, percentage of control without inhibitor: inhibitor 20 μM; for fuLAP2 hydrolytic activity, percentage of control without inhibitor / fuLAP2 hydrolytic activity, percentage of control without any cation: Leu-MCA substrate
# Experimental: as §1
# fuLAP1 = fuLAP1 (Aspergillus fumigatus, UniProt Q5VJG6); format: biochemical; settings: Leu-MCA substrate; for fuLAP1 hydrolytic activity, percentage of control without inhibitor: inhibitor 20 μM
# Experimental: as §1
# [2] = test system: all the LAPs tested (ruLAP1, ruLAP2, fuLAP1, fuLAP2, pkLAP); format: biochemical; settings: for effect of inhibitor on all the LAPs tested: Leu-AMC 5 mM, amastatin 500 μM, ortho-phenantroline 1 and 5 mM, others as
# Experimental: as §1
# ruLAP2 = ruLAP2 (Trichophyton rubrum, UniProt Q5QHG6); format: biochemical; settings: for ruLAP2 hydrolytic activity, percentage of control without inhibitor: inhibitor 20 μM; for ruLAP2 hydrolytic activity, percentage of control without inhibitor / ruLAP2 hydrolytic activity, percentage of control without any cation: Leu-MCA substrate
# Experimental: as §1
# ruLAP1 = ruLAP1 (Trichophyton rubrum, UniProt Q5QHG5); format: biochemical; settings: Leu-MCA substrate; for ruLAP1 hydrolytic activity, percentage of control without inhibitor: inhibitor 20 μM
# Experimental: as §1
# gliadin 33 mer = assay: Digestion of gliadin 33 mer (RP-HPLC, ESI-MS); format: biochemical, wheat
# Chain of fuLAP1 (Q5VJG6 15-388, looked up, natural form): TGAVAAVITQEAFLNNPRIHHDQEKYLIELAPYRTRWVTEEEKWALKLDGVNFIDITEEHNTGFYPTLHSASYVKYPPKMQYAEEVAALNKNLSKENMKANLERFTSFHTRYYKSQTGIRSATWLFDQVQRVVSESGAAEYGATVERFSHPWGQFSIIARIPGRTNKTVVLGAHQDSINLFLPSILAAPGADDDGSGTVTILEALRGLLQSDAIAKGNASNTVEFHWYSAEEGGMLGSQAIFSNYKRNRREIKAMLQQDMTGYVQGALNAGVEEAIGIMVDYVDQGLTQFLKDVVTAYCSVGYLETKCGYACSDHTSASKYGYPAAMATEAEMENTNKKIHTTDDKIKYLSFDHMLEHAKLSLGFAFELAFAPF
# Chain of ruLAP1 (Q5QHG5 19-373): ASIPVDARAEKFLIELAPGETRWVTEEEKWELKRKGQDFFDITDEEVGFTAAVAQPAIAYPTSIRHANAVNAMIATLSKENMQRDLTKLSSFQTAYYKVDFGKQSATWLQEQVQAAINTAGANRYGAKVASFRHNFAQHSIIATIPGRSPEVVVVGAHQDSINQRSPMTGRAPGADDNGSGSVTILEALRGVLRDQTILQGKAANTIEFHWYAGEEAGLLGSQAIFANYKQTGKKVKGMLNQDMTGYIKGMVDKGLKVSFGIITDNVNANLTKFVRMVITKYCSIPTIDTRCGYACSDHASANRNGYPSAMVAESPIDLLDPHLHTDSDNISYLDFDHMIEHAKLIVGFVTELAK
# Chain of ruLAP2 (Q5QHG6 22-495): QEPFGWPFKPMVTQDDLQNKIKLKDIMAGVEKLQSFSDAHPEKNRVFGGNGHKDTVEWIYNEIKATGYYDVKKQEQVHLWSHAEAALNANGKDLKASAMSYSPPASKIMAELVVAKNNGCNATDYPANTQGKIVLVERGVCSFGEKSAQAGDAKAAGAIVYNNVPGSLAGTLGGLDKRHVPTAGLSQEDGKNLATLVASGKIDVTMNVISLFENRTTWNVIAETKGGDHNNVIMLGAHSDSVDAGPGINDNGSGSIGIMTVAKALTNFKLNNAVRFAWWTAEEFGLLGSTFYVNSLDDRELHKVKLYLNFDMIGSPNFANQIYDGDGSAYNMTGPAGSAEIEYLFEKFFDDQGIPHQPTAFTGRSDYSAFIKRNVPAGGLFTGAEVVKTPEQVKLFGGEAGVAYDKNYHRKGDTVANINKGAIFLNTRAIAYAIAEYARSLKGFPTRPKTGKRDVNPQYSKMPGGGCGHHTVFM
molecule,measurement,setting,value
Cc1ccc(S(=O)(=O)N[C@@H](CCCCN)C(=O)CCl)cc1 [TLCK],"pkLAP hydrolytic activity, percentage of control without inhibitor",[1],113%
same,"fuLAP2 hydrolytic activity, percentage of control without inhibitor",fuLAP2,120%
same,"fuLAP1 hydrolytic activity, percentage of control without inhibitor",fuLAP1,80%
same,effect of inhibitor on all the LAPs tested,[2],no clear inhibitory effects
same,"ruLAP2 hydrolytic activity, percentage of control without inhibitor",ruLAP2,96%
same,"ruLAP1 hydrolytic activity, percentage of control without inhibitor",ruLAP1,68%
Chymotrypsin [reference compound],digestion of the peptide with other enzymes,"gliadin 33 mer; 20 h, combinations with both enzymes at E/S (w:w) 1:50",not able to breakdown the peptide
"[Cl-].[Cl-].[Co+2] [Co^++, CoCl2]","pkLAP hydrolytic activity, percentage of control without any cation",[1]; cation salt 0.5 mM,876.1%
same,"pkLAP hydrolytic activity, percentage of control without any cation",[1]; cation salt 1 mM,899.8%
same,effect of divalent cation on fuLAP2 activity,fuLAP2; Leu-AMC substrate,highly activated
same,"fuLAP2 hydrolytic activity, percentage of control without any cation",fuLAP2; cation salt 0.5 mM,378.0%
same,"fuLAP2 hydrolytic activity, percentage of control without any cation",fuLAP2; cation salt 1 mM,662.7%
same,"fuLAP1 hydrolytic activity, percentage of control without any cation",fuLAP1; cation salt 0.5 mM,104.3%
same,"fuLAP1 hydrolytic activity, percentage of control without any cation",fuLAP1; cation salt 1 mM,96.5%
same,increase of the activity of the LAPs,"[2]; concentration up to 1 mM, with the exception of fuLAP1",200% to 900%
same,effect of divalent cation on ruLAP2 activity,ruLAP2; Leu-AMC substrate,highly activated
same,"ruLAP2 hydrolytic activity, percentage of control without any cation",ruLAP2; cation salt 0.5 mM,591.2%
same,"ruLAP2 hydrolytic activity, percentage of control without any cation",ruLAP2; cation salt 1 mM,789.7%
same,"ruLAP1 hydrolytic activity, percentage of control without any cation",ruLAP1; cation salt 0.5 mM,210.2%
same,"ruLAP1 hydrolytic activity, percentage of control without any cation",ruLAP1; cation salt 1 mM,202.1%
Cc1ccc(S(=O)(=O)N[C@@H](Cc2ccccc2)C(=O)CCl)cc1 [TPCK],"pkLAP hydrolytic activity, percentage of control without inhibitor",[1],108%
same,"fuLAP2 hydrolytic activity, percentage of control without inhibitor",fuLAP2,87%
same,"fuLAP1 hydrolytic activity, percentage of control without inhibitor",fuLAP1,95%
same,effect of inhibitor on all the LAPs tested,[2],no clear inhibitory effects
same,"ruLAP2 hydrolytic activity, percentage of control without inhibitor",ruLAP2,79%
same,"ruLAP1 hydrolytic activity, percentage of control without inhibitor",ruLAP1,68%
B1,digestion of the 33 mer,"gliadin 33 mer; 37° C., 1 mM CoCl2, pH7.2",totally inactive
